Assay [1] has as its system human pancreatic cancer Bxpc3-18.2. Kind of assay: Bxpc3-18.2 nude mouse xenograft tumor model, gemcitabine as control. It counts as in vivo.
Description: When the tumor grew to a volume of about 100 mm^3 (day 39 after inoculation), 48 animals with good tumor growth were selected and equally divided into 6 groups (day 0) according to the tumor volume, with 8 animals in each group. […] The tumor diameters were measured twice a week, the mice were weighed, and the data were recorded. The tumor growth was dynamically observed by measuring the tumor diameters at different times after administration. The experiment was ended on day 28, the mice were asphyxiated with carbon dioxide, and then the tumors were stripped off and weighed.
For assay [2], the system named is human gastric cancer NUGC-4-18.2. Kind of assay: NUGC-4-18.2 nude mouse xenograft tumor model, cisplatin as control. Conditions: 6 mg/kg i.v. qw×3, day 20.
Description: 2) In this experiment, human gastric cancer NUGC-4-18.2 was selected to construct a nude mouse xenograft tumor model. When the tumor grew to a volume of about 120 mm^3 (day 6 after inoculation), 64 animals with good tumor growth were selected and equally divided into 8 groups (day 0) according to the tumor volume, with 8 animals in each group. […] The tumor diameters were measured twice a week, the mice were weighed, and the data were recorded. The change in the tumor growth was dynamically observed by measuring the tumor diameters at different times after administration. The experiment was ended on day 20, the animals were asphyxiated with carbon dioxide, and then the tumors were stripped off and weighed.
For assay [3], the target named is human CLDN18.2 (human) (UniProt P56856). Description: flow cytometry on HEK293-human CLDN18.2 cells, four-parameter fit; given as ED50. For orientation: A flow cytometer gives signals particle by particle.
In assay [4] the target is mouse CLDN18.2 (mouse) (UniProt P56857). Kind of assay: flow cytometry on HEK293-mouse CLDN18.2 cells, four-parameter fit; given as ED50.
Assay [5] addresses T1, cynomolgus monkey CLDN18.2 (cynomolgus monkey, UniProt A0A2K5VVB4 1-261).
T1 chain: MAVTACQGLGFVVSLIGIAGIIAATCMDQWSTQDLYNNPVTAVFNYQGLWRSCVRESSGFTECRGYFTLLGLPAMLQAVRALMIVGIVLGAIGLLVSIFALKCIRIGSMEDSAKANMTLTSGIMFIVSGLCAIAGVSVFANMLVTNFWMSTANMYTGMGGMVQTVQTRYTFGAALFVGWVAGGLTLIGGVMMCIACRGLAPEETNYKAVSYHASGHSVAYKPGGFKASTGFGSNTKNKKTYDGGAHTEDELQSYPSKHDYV
Description: flow cytometry on CHO-K1-cynomolgus monkey CLDN18.2 cells, four-parameter fit; given as ED50.

The EC50 is the concentration needed to bring the measured effect to its halfway point.

As to `Nc1ccn([C@@H]2O[C@H](CO)[C@@H](O)C2(F)F)c(=O)n1` [Gemcitabine, gemcitabine, reference compound], in assay [1] (50 mg/kg i.v. biw×4, day 28), the “tumor weight inhibition rate” value is 51.0%. Moreover, the “tumor growth compared with the solvent control group” value in assay [1] (SYJS001-ADC 2, 4 and 8 mg/kg single, GEM 50 mg/kg biw×4, P<0.01) is reported as “significantly inhibited”.
For `N.N.[Cl][Pt][Cl]` [cisplatin, reference compound], the “tumor weight inhibition rate” value in assay [2] was 66.5%.

B1: SYJS001-ADC (recombinant anti-human CLDN18.2 monoclonal antibody-MMAE conjugate) (antibody, human IgG1, kappa, V domains shown)
VH: EVQLSESGGALVQPGESLRLSCAASGFTFSSYAMTWVRQAPGKGLEWVSSLSGSGRSTYYAASIKGRFTISRDNSKNTLYLQMSSLRAEDTAIYYCAKSLSYYHYYFDYWGQGTLVTVSS
VL: DIQLTQSPSFLSASVGDRVPITCRASQDISNYLAWYQQKPGKAPKLLIYSASTLQSGVPSRFSGSGSGTEFTLTISSLQPEDFASYHCQQVKTYPLTFGGGTKVEIKR
modifications: one molecule of MMAE conjugated via the linker NH2-PEG3-Val-Cit (LND1002) by an amide (isopeptide) bond to Q298 (i.e., Q295 according to Kabat numbering) of each heavy chain; mean DAR 2.0
notes: also called anti-CLDN18.2 antibody-drug conjugate SYJS001-ADC
As for B1, the values for the EC50 in assay [3], in assay [4] and in assay [5] were 0.439 µg/mL, 0.717 µg/mL and 0.648 µg/mL, respectively.

The values above are taken from patent US20250345447A1, “PHARMACEUTICAL COMPOSITION OF RECOMBINANT ANTI-HUMAN CLDN18.2 MONOCLONAL ANTIBODY-MMAE CONJUGATE” (CSPC MEGALITH BIOPHARMACEUTICAL CO., LTD., priority 2022, published 2025).
